The text below walks through data of US10844064B2, “sGC stimulators” (Cyclerion Therapeutics, Inc., priority 2014, dated 2020).

Where “and” joins values, the source holds several entries; their conditions need not be identical. Equal values may be shown once.

For the assay, the target named is T1, sGC enzyme (Homo sapiens, UniProt Q02108+Q02153).
T1 construct: host or cells: HEK293 expressing GloSensor 40F cGMP
T1 sequence (Q02108 1-690): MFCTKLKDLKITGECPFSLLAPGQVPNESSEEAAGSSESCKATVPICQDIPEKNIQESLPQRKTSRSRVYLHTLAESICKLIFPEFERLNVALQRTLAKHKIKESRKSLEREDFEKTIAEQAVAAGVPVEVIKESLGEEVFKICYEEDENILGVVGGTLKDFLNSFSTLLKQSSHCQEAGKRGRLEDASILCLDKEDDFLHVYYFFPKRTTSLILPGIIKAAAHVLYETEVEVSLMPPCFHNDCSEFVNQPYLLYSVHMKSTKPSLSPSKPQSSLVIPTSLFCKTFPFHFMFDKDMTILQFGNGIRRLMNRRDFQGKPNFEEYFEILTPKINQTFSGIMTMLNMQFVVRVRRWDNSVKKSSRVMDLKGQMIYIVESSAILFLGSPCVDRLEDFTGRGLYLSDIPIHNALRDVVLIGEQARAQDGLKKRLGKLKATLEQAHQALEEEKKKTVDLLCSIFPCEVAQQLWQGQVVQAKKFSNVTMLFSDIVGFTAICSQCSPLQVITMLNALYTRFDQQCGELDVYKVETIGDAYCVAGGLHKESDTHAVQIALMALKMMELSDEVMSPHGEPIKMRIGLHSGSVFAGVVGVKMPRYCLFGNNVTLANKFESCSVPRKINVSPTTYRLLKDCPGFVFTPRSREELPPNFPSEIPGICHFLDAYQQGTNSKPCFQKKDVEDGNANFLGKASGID
T1 sequence (Q02153 1-619): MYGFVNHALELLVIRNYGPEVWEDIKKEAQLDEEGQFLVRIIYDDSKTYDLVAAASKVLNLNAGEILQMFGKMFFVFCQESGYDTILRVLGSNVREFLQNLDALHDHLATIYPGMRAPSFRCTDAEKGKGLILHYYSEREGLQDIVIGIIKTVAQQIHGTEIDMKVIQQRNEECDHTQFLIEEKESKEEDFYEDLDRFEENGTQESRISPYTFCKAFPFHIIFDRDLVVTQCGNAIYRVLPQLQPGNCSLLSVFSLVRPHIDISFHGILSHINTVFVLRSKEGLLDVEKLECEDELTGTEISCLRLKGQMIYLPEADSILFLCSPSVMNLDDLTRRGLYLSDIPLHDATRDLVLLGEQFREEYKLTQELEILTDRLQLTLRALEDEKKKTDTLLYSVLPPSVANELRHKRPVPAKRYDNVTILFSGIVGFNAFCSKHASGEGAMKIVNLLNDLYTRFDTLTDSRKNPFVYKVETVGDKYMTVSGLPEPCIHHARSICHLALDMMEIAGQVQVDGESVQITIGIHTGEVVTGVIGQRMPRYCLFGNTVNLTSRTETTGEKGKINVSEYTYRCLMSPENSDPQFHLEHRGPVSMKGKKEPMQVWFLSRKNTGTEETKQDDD
Put plainly: cGMP GloSensor cell-based assay, 384-well format (Example 2B). The following applies: HEK293 GloSensor 40F cGMP cells, 10 μM DETA-NONOate; 50% of high control response (Compound Y); read-out: sGC_HEK_GloSensor EC50/IC50 Abs (Norm) (nM) Binned. As to the method:
Data were normalized to a high control using the following equation: 100*(Sample—Low Control)/(High Control—Low Control), where the low control is the average of 16 samples treated with 1% DMSO, and the high control is the average of 16 samples treated with 30 μM of Compound Y depicted below. Data were fit using a 4-parameter fit (log(agonist) vs. response variable slope) using GraphPad Prism Software v.5. n=2 for all compounds. […] Compounds failing to elicit a minimum response of 50% are reported as >30 μM. For compounds run in duplicate or n higher than 2, the result herein given is the geometric mean of the several results obtained.
Human embryonic kidney cells (HEK293) cells expressing GloSensor™ 40F cGMP (Part No: CS182801, Promega) were used to evaluate the activity of test compounds. The luminescent biosensors (engineered luciferase) that were incorporated into these cells detect cGMP formed by the compounds stimulating the sGC enzyme and emit luminescence.
cGMP GloSensor cells were maintained in Dulbecco's Modification of Eagle's Medium (DMEM) supplemented with fetal bovine serum (FBS) (10% final) and hygromycine (200 μg/ml). The day before assay, cells were plated in DMEM with 10% FBS in a 50 μL volume at a density of 1.5×10^4 cells/well in a poly-D-lysine coated 384-well flat white-bottom plate (Corning Cat No 35661). Cells were incubated overnight at 37° C. in a humidified chamber with 5% CO2. The next day, medium was removed and cells were replaced with 40 μl/well of GloSensor™, […] (Promega Cat No E1291). Cells were treated for 90 minutes at 25° C. to allow the substrate to equilibrate in the cells. Test compounds and Diethylenetriamine NONOate (DETA-NONOate) was diluted to […] in serum-free CO2 independent medium and serally diluted at 4× dilutions to create 5× dose curve from which 10 ul was added to the wells (x uM concentration for test compound solution and 10 μM concentration for DETA-NONOate solution; wherein x is one of the following final concentrations).
For the kinetics studies, luminescense was measured right away for 0.2 sec per well with Envision (Perkin Elmer model No). For endpoint SAR screening, data were collected after 55 min incubation at room temperature.
Data analysis was carried out as indicated above in Example 2A.
`COc1ccc(CN2C(=O)C(C)(C)c3nnc(-n4cc(OC)c(Cc5ccccc5F)n4)nc32)cc1` [Compound I-91, 3-(3-(2-fluorobenzyl)-4-methoxy-1H-pyrazol-1-yl)-5-(4-methoxybenzyl)-7,7-dimethyl-5H-pyrrolo[2,3-e][1,2,4]triazin-6(7H)-one]: the EC50 was over 30000 nM.
To `Cn1cc(-c2nc(N)c3c(n2)NC(=O)C3(C)C)nc1Cc1ccccc1F` [Compound I-12] belongs > 1000 nM and < 100 nM; to `CC1(C)C(=O)Nc2nc(-n3cc(O)c(Cc4ccccc4F)n3)ncc21` [Compound I-37], over 1000 nM; to `COc1cc(-c2ncc3c(n2)NC(=O)C3(C)C)nn1Cc1cccc(C#N)c1` [Compound I-60], 100 to 1000 nM.
The same measure for `COc1cc(-c2ncc3c(n2)NCC3(C)C)nn1Cc1ccccc1F` [Compound I-27]: 100 to 1000 nM.
The same measure for `COc1cn(-c2ncc3c(n2)NC(=O)C3(C)C)nc1Cc1ccccc1F` [Compound I-38]: under 100 nM; for `CC1(C)C(=O)Nc2nc(-c3ccn(Cc4ccccc4F)n3)nc(N)c21` [Compound I-73, 4-amino-2-(1-(2-fluorobenzyl)-1H-pyrazol-3-yl)-5,5-dimethyl-5H-pyrrolo[2,3-d]pyrimidin-6(7H)-one]: 100 to 1000 nM.
Regarding `COc1cc(-c2ncc3c(n2)NC(=O)C3(C)C)nn1Cc1ccc(F)cc1` [Compound I-57], the EC50 fell in the range of 100 to 1000 nM.
Consider `COc1cc(-c2ncc3c(n2)N(CC2CC2)C(=O)C3(C)C)nn1Cc1ccccc1F` [Compound I-33], for which the EC50 is over 1000 nM.
The same measure for `CC1(C)C(=O)Nc2nc(-c3ccn(Cc4ccccc4F)n3)ncc21` [Compound I-74]: 100 to 1000 nM.
Consider `COc1c(C)c(-c2nc(N)c3c(n2)NC(=O)C3(C)C)nn1Cc1ccccc1F` [Compound I-41], for which the EC50 lay in the range of 100 to 1000 nM.
To `CC1(C)C(=O)Nc2nc(-c3ccn(Cc4ccccc4F)n3)nc(O)c21` [Compound I-79] belongs over 1000 nM; to `COc1cc(-c2ncc3c(n2)NC(=O)C3(C)C)nn1Cc1ccc(C(F)(F)F)c(F)c1` [Compound I-64], over 1000 nM; to `CC1(C)C(=O)Nc2nc(-c3ccn(Cc4ccccc4F)n3)nc(NCC3CC3)c21` [Compound I-75], 100 to 1000 nM.
The same measure for `CC1(C)C(=O)Nc2nc(-c3cc(C#N)n(Cc4ccccc4F)n3)ncc21` [Compound I-45]: under 100 nM.
`CC(=O)c1cc(-c2nnc3c(n2)NC(=O)C3(C)C)nn1Cc1ccccc1F` [Compound I-70]: the EC50 lay in the range of 100 to 1000 nM.
The same measure for `COc1cn(-c2nc(O)c3c(n2)NC(=O)C3(C)C)nc1Cc1ccccc1F` [Compound I-83]: under 100 nM; for `COc1cc(-c2nc(O)c3c(n2)NC(=O)C3(C)C)nn1Cc1ccccc1F` [Compound I-28]: 100 to 1000 nM.
To `COc1c(Br)c(-c2ncc3c(n2)NC(=O)C3(C)C)nn1Cc1ccccc1F` [Compound I-40] belongs under 100 nM; to `CC1(C)C(=O)Nc2nc(-c3cc(C#N)n(Cc4ccccc4F)n3)nnc21` [Compound I-69], 100 to 1000 nM; to `COc1cn(-c2nnc3c(n2)NC(=O)C3(C)C)nc1Cc1ccccc1F` [Compound I-67], 100 to 1000 nM.
To `CC1(C)C(=O)Nc2nc(-n3cc(-c4ccon4)c(Cc4ccccc4F)n3)ncc21` [Compound I-81, 2-(3-(2-fluorobenzyl)-4-(isoxazol-3-yl)-1H-pyrazol-1-yl)-5,5-dimethyl-5H-pyrrolo[2,3-d]pyrimidin-6(7H)-one] belongs 100 to 1000 nM; to `Cc1cn(-c2nc(O)c3c(n2)NC(=O)C3(C)C)nc1Cc1ccccc1F` [Compound I-86], 100 to 1000 nM; to `CC(C)Oc1cc(-c2ncc3c(n2)NC(=O)C3(C)C)nn1Cc1ccccc1F` [Compound I-36], over 1000 nM.
In the case of `COc1cc(-c2nc(N)c3c(n2)NC(=O)C3(C)C)nn1Cc1ccccc1` [Compound I-51, 4-amino-2-(1-benzyl-5-methoxy-1H-pyrazol-3-yl)-5,5-dimethyl-5H-pyrrolo-[2,3-d]pyrimidin-6(7H)-one], the EC50 was under 100 nM.
To `CC(=O)c1cc(-c2ncc3c(n2)NC(=O)C3(C)C)nn1Cc1ccccc1F` [Compound I-25] belongs 100 to 1000 nM; to `CC1(C)C(=O)Nc2nc(-c3ccn(Cc4ccccc4F)n3)nc(N3CCOCC3)c21` [Compound I-76], 100 to 1000 nM.
To `COc1c(Cl)c(-c2ncc3c(n2)NC(=O)C3(C)C)nn1Cc1ccccc1F` [Compound I-44] belongs under 100 nM; to `COc1cn(-c2nc(N)c3c(n2)NC(=O)C3(C)C)nc1Cc1ccccc1F` [Compound I-82, 4-amino-2-(3-(2-fluorobenzyl)-4-methoxy-1H-pyrazol-1-yl)-5,5-dimethyl-5H-pyrrolo[2,3-d]pyrimidin-6(7H)-one], under 100 nM; to `COc1cc(-c2ncc3c(n2)NC(=O)C3(C)C)nn1Cc1cccc(Cl)c1` [Compound I-59], 100 to 1000 nM.
To `COc1cc(-c2ncc3c(n2)N(C)C(=O)C3(C)C)nn1Cc1ccccc1F` [Compound I-26] belongs over 1000 nM; to `CC1(C)C(=O)Nc2nc(-c3cc(OC(F)F)n(Cc4ccccc4F)n3)nc(O)c21` [Compound I-32], 100 to 1000 nM; to `Cc1cn(-c2nc(N)c3c(n2)NC(=O)C3(C)C)nc1Cc1ccccc1F` [Compound I-84, 4-amino-2-(3-(2-fluorobenzyl)-4-methyl-1H-pyrazol-1-yl)-5,5-dimethyl-5H-pyrrolo[2,3-d]pyrimidin-6(7H)-one], under 100 nM.
As to `COc1cc(-c2ncc3c(n2)NC(=O)C3(C)C)nn1Cc1ccc(C(F)(F)F)cc1` [Compound I-62], the EC50 is over 1000 nM.
To `Cn1cc(-c2ncc3c(n2)NC(=O)C3(C)C)nc1Cc1ccccc1F` [Compound I-66] belongs over 1000 nM; to `Cc1nc(-c2nc(O)c3c(n2)NC(=O)C3(C)C)nn1Cc1ccccc1F` [Compound I-88], over 1000 nM; to `CCCOc1cc(-c2ncc3c(n2)NC(=O)C3(C)C)nn1Cc1ccccc1F` [Compound I-35], over 1000 nM.
The same measure for `Cc1nc(-c2ncc3c(n2)NC(=O)C3(C)C)nn1Cc1ccccc1F` [Compound I-89]: over 1000 nM.
The same measure for `COc1cc(-c2ncc3c(n2)NC(=O)C3(C)C)nn1Cc1cccc(F)c1` [Compound I-55]: under 100 nM; for `CC1(C)C(=O)Nc2nnc(-c3cc(-c4ccon4)n(Cc4ccccc4F)n3)nc21` [Compound I-68]: over 1000 nM; for `Cc1nc(-c2ccn(Cc3ccccc3F)n2)nc2c1C(C)(C)C(=O)N2` [Compound I-77]: over 1000 nM.
